# Laboratory results as given in patent US20030139609A1, “Aziridinyl quinone antitumor agents based on indoles and cyclopent[b]indoles” (priority 2001, published 2003).
# “And” between values parts separate entries of the source, which are not always exact repeats. Equal entries are not always repeated.
# Tests used:
# [1] = system: 600 bp calf thymus DNA; experiment: DNA reductive alkylation by catalytically reduced aziridinyl quinones; type: biochemical; conditions: for DNA alkylation percentage: catalytic reduction, anaerobic, pH 7.4 tris buffer, 30° C., 24 h, absorbance at 550 nm
# Experimental: DNA Alkylation Screening of Series 1-9. The extent of DNA reductive alkylation was determined by catalytic reduction of the aziridinyl quinones in the presence of 600 bp calf thymus DNA. Oxidative workup afforded DNA colored blue as a result of the aminoquinone chromophore. […] The anaerobic conditions employed for DNA reductive alkylation assays is not meant to mimic the environment of tumor cells. These conditions do permit an accurate assessment of the structural requirements for DNA alkylation by the hydroquinone species. To be sure, agents incapable of akylating DNA under these ideal conditions will not do so in the typical cellular environment.
# Alkylation of DNA by Reduced Indoloquinones. To a mixture of 1-2 mg of sonicated (600 bp) calf thymus DNA in 2.0 mL of 0.05 M of pH 7.4 tris buffer and 2 mg of Pd on carbon was added a five-to-one base pair equivalent amount of the indoloquinone dissolved in 0.5 mL of dimethylsulfoxide. The resulting solution was degassed under argon for 30 min., after which the mixture was purged with H2 for 10 min. The solution was then purged with argon for 10 min. and placed in a 30° C. bath for 24 h. The reaction was opened to the air and the catalyst was removed with a Millex-PF […] syringe filter. The filtrate was adjusted to 0.3 M acetate with a 3 M stock solution of pH 5.1 acetate and then diluted with two volumes of ethanol. The mixture was chilled at −20° C. for 12 h and the DNA pellet collected by centrifuging at 12,000 g for 20 min. The pellet was redissolved in water and then precipitated and centrifuged again. The resulting blue or red pellet was suspended in ethanol, centrifuged, and dried. The dried pellet was weighed and dissolved in 1 mL of double distilled water resulting in a clear colored solution with […]max˜550 nm, □˜750 M^−1 cm^−1. This is the chromophore of the aminoquinone resulting from nucleophile-mediated opening of the aziridine ring. Model 2′-chloroethyl aminoquinones for extinction coefficient determination were prepared by treatment of the indoloquinone with HCl. {Skibo, E. B. and Xing, C., Chemistry and DNA Alkylation Reactions of Aziridinyl Quinones: Development of an Efficient Alkylating Agent of the Phosphate Backbone, Biochemistry, 1998, 37, 15199-15213}.
# [2] = system: National Cancer Institute 60-cell line; experiment: NCI 60-cell line in vitro screen (average cytotoxicity and cancer specificity); conditions: for Average Log LC50 60-Cell Line: mean over 60 cell lines, ± value measures cancer specificity
# Experimental: Cytotoxic and Cytostatic Screening of Series 1-9. […] The cytostatic parameters include GI50 and TGI, which are the concentrations of drug required for 50% growth inhibition and total growth inhibition, respectively. The cytotoxic parameter is the LC50, which is the concentration required for 50% cell kill.
# 4. […] Cancer specificity is measured from the ± value under the “Average Log LC50 60-Cell Line” heading of Table 5. A ± value greater than 2 indicates a greater than 100-fold higher/lower cytotoxicity in some histological cancer types compared to the mean cytotoxicity.
# The DT-diaphorase levels in the National Cancer Institute 60-cell line in vitro screen have been determined and correlated with the cytotoxicity of antitumor agents activated by 2-electron reduction. {Fitzsimmons, S. A., Workman, P., Grever, M., Paull, K., Camalier, R., and Lewis, A. D., Reductase Enzyme Expression Across the National Cancer Institute Tumor Cell Line Panel: Correlation with Sensitivity To Mitomycin C and EO9, J. Natl. Cancer Inst., 1996, 88, 259-69}. Sensitive cancers usually include NSC lung and colon cancers (and to a lesser extent CNS, melanoma, and renal cancers) by virtue of their elevated DT-diaphorase levels.
# [3] = system: NCI-H460 non-small-lung cancer cell line; experiment: NCI In Vitro Cell Line Screening, NSC H460 cell line; type: cell-based; conditions: for GI50 / CC50: Homo sapiens; for GI50: NCI-H460, concentration for 50% growth inhibition, read-out: Log GI50 NSC H460 (converted); for CC50: NCI-H460, read-out: Log LC50 NSC H460, concentration for 50% cell kill (converted); for Log TGI NSC H460: concentration for total growth inhibition; for Log GI50 NSC H460: concentration for 50% growth inhibition
# Description: Cytotoxic and Cytostatic Screening of Series 1-9.
# [4] = system: B16 melanoma; experiment: animal or person; type: in vivo; conditions: for In vivo T/C (Treated/Control) / response vs control in vivo at 2 mg/kg: T/C at day 25, <40% active; for response vs control in vivo at 2 mg/kg: Mus musculus, B16, 600 h, read-out: In vivo T/C (Treated/Control)
# Description: Shown in Tables 6 and 7 are B16 melanoma syngraft assays {Griswold, D. P., Consideration of the Subcutaneously Implanted B16 Melanoma as a Screening Model for Potential Anticancer Agents, Cancer Chemother Reports, 1972, 3, 315-324} of some members of Series 1-9, as well as related compounds previously reported from this laboratory. {Xing, C. G., Wu, P., Skibo, E. B., and Dorr, R. T., Design of cancer-specific antitumor agents based on aziridlinylcyclopent[b]indoloquinones, J. Med. Chem., 2000, 43, 457-466}. Each agent was evaluated at three doses in C57/bl mice: 2, 3 or 5 mg/kg/day, on days 1, 5, and 9 after subcutaneous tumor implantation of 10^5 cells in the front flank on day 0. “Toxic” means that there was early lethality, or ≧50% lethality prior to any deaths in the control group. The treated over control values (T/C) were measured at day 25 of the study. A T/C value <40% is considered active.
# In vivo Evaluation. The B-16 melanoma in C57/bl mice syngraft model was employed to determine in vivo activity. {Griswold, D. P., Consideration of the Subcutaneously Implanted B16 Melanoma as a Screening Model for Potential Anticancer Agents, Cancer Chemother Reports, 1972, 3, 315-324}. Each agent was evaluated at three doses: 2, 3 or 5 mg/kg/day, on days 1, 5, and 9 after subcutaneous tumor implantation of 10^5 cells in the front flank on day 0. “Toxic” means that there was early lethality, or ≧50% lethality prior to any deaths in the control group. The treated over control values (T/C) were measured at day 25 of the study. A T/C value<40% is considered active. […] The control was obtained with drug-free animals.
Compound,DNA alkylation percentage [1],melting point,Average Log LC50 60-Cell Line [2],GI50 [3],CC50 [3],Log TGI NSC H460 [3],"In vivo T/C (Treated/Control) ([4]; 5 mg/Kg/Day on days 1, 5, 9)",further results
"CC(=O)OC1CCc2c1[nH]c1c2C(=O)C(N2CC2)=CC1=O (stereo not drawn) [Compound 1b, 3-Acetoxy-7-aziridinyl-1,2,3,4-tetrahydrocyclopent[b]indole-5,8-dione]",34%,165 °C,,,,,,
"CC(=O)OC1CCc2c3c(n(C(C)=O)c21)C(=O)C=C(N1CC1)C3=O (stereo not drawn) [Compound 1c, 7-Aziridinyl-3-acetoxy-4-acetyl-1,2,3,4-tetrahydrocyclopent[b]indole-5,8-dione]",,140 °C,,,,,,
"CC(=O)OC1CCc2c1[nH]c1c2C(=O)C(N2CC2)=C(C)C1=O (stereo not drawn) [Compound 2b, 3-Acetoxy-7-aziridinyl-6-methyl-1,2,3,4-tetrahydrocyclopent[b]indole-5,8-dione]",21%,165 °C,,,,,,
"CC(=O)OC1CCc2c3c(n(C(C)=O)c21)C(=O)C(C)=C(N1CC1)C3=O (stereo not drawn) [Compound 2c, 7-Aziridinyl-3-acetoxy-4-acetyl-6-methyl-1,2,3,4-tetrahydrocyclopent[b]indole-5,8-dione]",,156 °C,,,,,,
"O=C1C(N2CC2)=CC(=O)c2c1[nH]c1c2CCC1O (stereo not drawn) [Compound 3a, 6-Aziridinyl-3-hydroxy-1,2,3,4-tetrahydrocyclopent[b]indole-5,8-dione]",30%,,−5.59 ± 1.95,0.00724 µM,1.78 µM,−7.24,,cytostatic/cytotoxic activity versus histological cancer type (in words) [2]: significant cytostatic/cytotoxic activity
CC(=O)OC1CCc2c1[nH]c1c2C(=O)C(C)=C(N2CC2)C1=O (stereo not drawn) [Compound 4b],44%,,−4.67 ± 1.04,0.112 µM,1.23 µM,−6.17,,± value of Average Log LC50 60-Cell Line [2]: ~1
CC(=O)OC1CCc2c3c(n(C(C)=O)c21)C(=O)C(N1CC1)=C(C)C3=O (stereo not drawn) [Compound 4c],9%,,−4.60 ± 1.12 and −4.49 ± 1.31,,,,15%,"In vivo T/C (Treated/Control) ([4]; 2 mg/Kg/Day on days 1, 5, 9): 37%; In vivo T/C (Treated/Control) ([4]; 3 mg/Kg/Day on days 1, 5, 9): 15%; in vivo antitumor activity (in words) ([4]; 2, 3 or 5 mg/kg/day): active at all doses; in vivo toxicity (in words) ([4]; 2, 3 or 5 mg/kg/day): without any toxicity"
"CC1=C(N2CC2)C(=O)c2c(c3c(n2C)C(O)CC3)C1=O (stereo not drawn) [Compound 5a, 6-Aziridinyl-4,7-dimethyl-3-Hydroxy-1,2,3,4-tetrahydrocyclopent[b]indole-5,8-dione]",0.3%,,,1.26 µM,50.1 µM,−5.12,,"cytostatic/cytotoxic activity versus histological cancer type (in words) [2]: inactive against all histological cancer types; CC50 ([2]; Homo sapiens, 60 cell, read-out: Average Log LC50 60-Cell Line (converted)): ≥ 100 µM; cytostatic and cytotoxic activity (−log) [3]: 5-6"
CC(=O)OC1CCc2c3c(n(C)c21)C(=O)C(N1CC1)=C(C)C3=O (stereo not drawn) [Compound 5b],,157 °C,,,,,,
"Cn1c(CO)c(CO)c2c1C(=O)C=C(N1CC1)C2=O [Compound 6b, 5-Aziridinyl-2,3-di(hydroxymethyl)-1-methylindole-4,7-dione]",3.8%,,−5.35 ± 2.65 and −5.50 ± 2.5,0.01 µM,,−8,Toxic (“Toxic” means ≧ 50% lethality before any control growth deaths),"In vivo T/C (Treated/Control) ([4]; 2 mg/Kg/Day on days 1, 5, 9): Toxic (“Toxic” means ≧ 50% lethality before any control growth deaths); In vivo T/C (Treated/Control) ([4]; 3 mg/Kg/Day on days 1, 5, 9): Toxic (“Toxic” means ≧ 50% lethality before any control growth deaths)"
"CC1=C(N2CC2)C(=O)c2c([nH]c(CO)c2CO)C1=O [Compound 7a, 5-Aziridinyl-2,3-di(hydroxymethyl)-6-methylindole-4,7-dione]",2%,,−5.54 ± 1.89,0.01 µM,1.17 µM,−7.49,Toxic (“Toxic” means ≧ 50% lethality before any control growth deaths),"In vivo T/C (Treated/Control) ([4]; 3 mg/Kg/Day on days 1, 5, 9): Toxic (“Toxic” means ≧ 50% lethality before any control growth deaths); response vs control in vivo at 2 mg/kg ([4]; 2 mg/Kg/Day on days 1, 5, 9): 36%; cytostatic/cytotoxic activity versus histological cancer type (in words) [2]: significant cytotoxic and cytostatic properties"
"CC1=C(N2CC2)C(=O)c2c(CO)c(CO)n(C)c2C1=O [Compound 7c, 5-Aziridinyl-2,3-di(hydroxymethyl)-1,6-dimethylindole-4,7-dione]",0%,165 °C,,,,,,DNA alkylation (in words) [1]: complete loss of DNA alkylation
"CC(=O)OCc1[nH]c2c(c1COC(C)=O)C(=O)C(C)=C(N1CC1)C2=O [Compound 8b, 6-Aziridinyl-2,3-di(acetoxymethyl)-5-methylindole-4,7-dione]",37%,,−4.52 ± 1.7 and −4.61 ± 2.5,0.0355 µM,,−6.75 and −6.71,Toxic (“Toxic” means ≧ 50% lethality before any control growth deaths),"In vivo T/C (Treated/Control) ([4]; 3 mg/Kg/Day on days 1, 5, 9): Toxic (“Toxic” means ≧ 50% lethality before any control growth deaths); response vs control in vivo at 2 mg/kg ([4]; 2 mg/Kg/Day on days 1, 5, 9): 74%; DNA alkylation (in words) [1]: high DNA alkylation percentages; Log GI50 NSC H460 [3]: −7.63"
"CC1=C(N2CC2)C(=O)c2c(c(CO)c(CO)n2C)C1=O [Compound 8c, 6-Aziridinyl-2,3-di(hydroxymethyl)-1,5-dimethylindol-4,7-dione]",0%,,−4.61 ± 1.64 and −4.67 ± 2.48,0.0389 µM,0.955 µM,−6.66,Toxic (“Toxic” means ≧ 50% lethality before any control growth deaths),DNA alkylation (in words) [1]: complete loss of DNA alkylation; Log GI50 NSC H460 [3]: −7.27; Log LC50 NSC H460 ([3]; human): −6.21
"O=C1C(N2CC2)=CC(=O)c2c1[nH]c(CO)c2CO [Compound 9a, 6-Aziridinyl-2,3-di(hydroxymethyl)indole-4,7-dione]",3.4%,,−5.07 ± 1.43,0.138 µM,11.7 µM,−5.94,,
